Data reported in article PMC9228656 (Toxins, 2022).
Read-outs that look alike come from different tables or passages of the source.

Tests used:
[1] = system: Salmonella typhimurium 1535/pSK1002
[2] = system: Salmonella typhimurium 1535/pSK1002; remark: listed apart in the source
[3] = system: Salmonella tester strains; settings: cited from earlier work
[4] = system: Salmonella typhimurium 1535/pSK1002; remark: listed apart in the source
Escherichia coli PQ37 = settings: cited from earlier work
[5] = system: 1535, 1538 and 98 strains; settings: cited from earlier work
Escherichia coli = settings: cited from earlier work

Molecule: Nc1ccc2cc3ccccc3cc2c1 [2AA, 2-aminoanthracene, reference compound]
- experiments in which the compound was genotoxic [1]: eight out of eight experiments
- induction factor (IF) reached ([1]; Salmonella typhimurium): around 4

Molecule: CC(=O)O[C@@H]1C[C@]2(C)[C@@]3(CO)[C@H](O)C(=O)C(C)=C[C@H]3O[C@H]1[C@@]21CO1 [3ADON, 3-acetyldeoxynivalenol]
- experiments with IF values above two [2]: three out of four experiments
- mutagenic activity in the Ames test [3]: mutagenic activity was not found

Molecule: CC(=O)OC[C@]12[C@H](O)C(=O)C(C)=C[C@H]1O[C@@H]1[C@H](O)C[C@@]2(C)[C@]12CO2 [15ADON, 15-acetyldeoxynivalenol]
- experiments with IF values above two [2]: two out of four experiments

Molecule: CC1=C[C@H]2O[C@@H]3[C@H](O)C[C@](C)([C@@]2(CO)[C@H](O)C1=O)[C@]31CO1 [DON, deoxynivalenol]
- genotoxicity result in the SOS/umu test [2]: negative (key: IF values above or equal to two were considered as positive when the bacterial survival is above 80%; IF values below 1.5 were considered negative; IF among 2 and 1.5 were considered equivocal)
- highest IF value obtained ([2]; Salmonella typhimurium): 1.94
- genotoxicity result in the SOS/umu test [4]: negative (key: IF values above or equal to two were considered as positive when the bacterial survival is above 80%; IF values below 1.5 were considered negative; IF among 2 and 1.5 were considered equivocal)
- genotoxicity in the SOS chromotest (Escherichia coli PQ37): negative
- mutagenic activity in the Ames test [3]: mutagenic activity was not found
- genotoxicity result in the SOS/umu test [1]: negative (key: IF values above or equal to two were considered as positive when the bacterial survival is above 80%; IF values below 1.5 were considered negative; IF among 2 and 1.5 were considered equivocal)

Molecule: CC(=O)O[C@@H]1[C@@H](O)[C@H]2O[C@@H]3C=C(C)C(=O)[C@@H](O)[C@]3(CO)[C@]1(C)[C@]21CO1 [F-X, fusarenon-X]
- genotoxicity result in the SOS/umu test [2]: negative (key: IF values above or equal to two were considered as positive when the bacterial survival is above 80%; IF values below 1.5 were considered negative; IF among 2 and 1.5 were considered equivocal)
- highest IF value obtained [2]: 1.88
- genotoxicity result in the SOS/umu test [4]: negative (key: IF values above or equal to two were considered as positive when the bacterial survival is above 80%; IF values below 1.5 were considered negative; IF among 2 and 1.5 were considered equivocal)
- mutagenic activity in the Ames test [3]: mutagenic activity was not found
- genotoxicity result in the SOS/umu test [1]: negative (key: IF values above or equal to two were considered as positive when the bacterial survival is above 80%; IF values below 1.5 were considered negative; IF among 2 and 1.5 were considered equivocal)

Molecule: CCCC[C@@H](C)[C@@H](OC(=O)C[C@@H](CC(=O)O)C(=O)O)[C@H](C[C@@H](C)C[C@H](O)CCCC[C@@H](O)C[C@H](O)[C@H](C)N)OC(=O)C[C@@H](CC(=O)O)C(=O)O [FB1, fumonisin B1]
- IF value reached [2]: 1.99
- genotoxicity result in the SOS/umu test [2]: negative (key: IF values above or equal to two were considered as positive when the bacterial survival is above 80%; IF values below 1.5 were considered negative; IF among 2 and 1.5 were considered equivocal)
- genotoxicity result in the SOS/umu test [4]: negative (key: IF values above or equal to two were considered as positive when the bacterial survival is above 80%; IF values below 1.5 were considered negative; IF among 2 and 1.5 were considered equivocal)
- genotoxicity in the SOS chromotest (Escherichia coli PQ37): negative
- mutagenic potential in the Ames test [3]: negative
- genotoxicity result in the SOS/umu test [1]: negative (key: IF values above or equal to two were considered as positive when the bacterial survival is above 80%; IF values below 1.5 were considered negative; IF among 2 and 1.5 were considered equivocal)

Molecule: CC(=O)OC[C@]12C[C@H](OC(=O)CC(C)C)C(C)=C[C@H]1O[C@@H]1[C@H](O)[C@@H](O)[C@@]2(C)[C@]12CO2 [HT-2, HT-2 toxin]
- experiments with IF values above two [2]: two out of four experiments

Molecule: C[C@@H]1Cc2c(Cl)cc(C(=O)N[C@@H](Cc3ccccc3)C(=O)O)c(O)c2C(=O)O1 [OTA, ochratoxin A]
- genotoxicity result in the SOS/umu test [2]: negative (key: IF values above or equal to two were considered as positive when the bacterial survival is above 80%; IF values below 1.5 were considered negative; IF among 2 and 1.5 were considered equivocal)
- genotoxicity result in the SOS/umu test [4]: negative (key: IF values above or equal to two were considered as positive when the bacterial survival is above 80%; IF values below 1.5 were considered negative; IF among 2 and 1.5 were considered equivocal)
- mutagenicity in the Ames test [5]: mutagenic
- SOS repair activity in SOS chromotest (Escherichia coli PQ37): induced SOS repair activity
- response in SOS chromotest (Escherichia coli PQ37): weak response
- mutagenic response in the Ames test [3]: negative
- mutagenicity with Salmonella tester strains [3]: consistently negative
- genotoxicity result in the SOS/umu test [1]: negative (key: IF values above or equal to two were considered as positive when the bacterial survival is above 80%; IF values below 1.5 were considered negative; IF among 2 and 1.5 were considered equivocal)

Molecule: COc1cc2c(c3oc4cccc(O)c4c(=O)c13)[C@@H]1C=CO[C@@H]1O2 [STER, sterigmatocystin]
- experiments with IF values above two [2]: one out of four experiments
- induction factor (IF) [1]: greater than two

Molecule: CC(=O)OC[C@]12C[C@H](OC(=O)CC(C)C)C(C)=C[C@H]1O[C@@H]1[C@H](O)[C@@H](OC(C)=O)[C@@]2(C)[C@]12CO2 [T-2, T-2 toxin]
- experiments with IF values above two [2]: three out of four experiments
- mutagenic activity in the Ames test [3]: mutagenic activity was not found

Molecule: C[C@H]1CCCC(=O)CCC/C=C/c2cc(O)cc(O)c2C(=O)O1 [ZEA, zearalenone]
- genotoxicity result in the SOS/umu test [2]: negative (key: IF values above or equal to two were considered as positive when the bacterial survival is above 80%; IF values below 1.5 were considered negative; IF among 2 and 1.5 were considered equivocal)
- genotoxicity result in the SOS/umu test [4]: negative (key: IF values above or equal to two were considered as positive when the bacterial survival is above 80%; IF values below 1.5 were considered negative; IF among 2 and 1.5 were considered equivocal)
- result in the Ames test [3]: negative
- genotoxicity result in the SOS/umu test [1]: negative (key: IF values above or equal to two were considered as positive when the bacterial survival is above 80%; IF values below 1.5 were considered negative; IF among 2 and 1.5 were considered equivocal)
- genotoxic concentration (induction of SOS repair) (Escherichia coli): 1.5 mM
- IC50 (Escherichia coli; read-out: IC50 (toxicity)): 1450 µM

Molecule: aflatoxin B1 [AFB1]
- mutagenicity with metabolic activation relative to without bioactivation [3]: 1000 times
